Measurements from patent publication US10954269B2, “Anti-inflammatory tripeptides” (Dr. August Wolff Gmbh & Co. KG Arzneimittel, priority 2013, dated 2021).
Where a SMILES comes first, the peptide text is derived from it. [ ]: non-standard residue; d: D form. Tle = CC(C)(C)[C@H](N)C(=O)O; Aib = CC(C)(N)C(=O)O

Columns and labels:
[1] = human, tissue homogenate, 1000 min, 160 μg/ml
Experimental: (§4) Human skin samples (ear skin, umbilical skin and juvenile foreskin) are combined and frozen in liquid nitrogen and homogenized. The resulting human skin homogenate is transferred portionwise (50-70 mg) to Protein LoBind Tubes (2 ml) and stored at −32° C. until use. At the beginning of the stability study the human skin homogenate is thawed. An aqueous solution of the tripeptide compound (1500 μl) with or without 0.02% sodium azide (cpeptide=160 μg/ml) is added and the mixture is incubated at 32° C. Samples were taken at 0, 30, 100, 300 and 1000 minutes. 100 μl sample are diluted with 1900 μl methanol containing an internal standard and analyzed with HPLC-MS. All analyses are performed in triplicate.

in vitro = conditions: human, tissue homogenate, % of the starting concentration
Experimental: as §4

primary human T-cells = test: Cytokine secretion on protein level in activated primary human T-cells (13-plex FACS / Luminex, supernatant); format: cell-based; conditions: human T cells; PMA/Ionomycin; Luminex; all tested concentrations
Summary of the method: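 Primary T-cells from peripheral blood of healthy volunteers, or HaCaT cells, were activated with PMA/Ionomycin or IFN-γ for 48 h and treated with tripeptides. Supernatants were collected 48 h and 72 h after stimulation and cytokines (IL-1, IL-2, IL-6, IL-12p70, IL-17, IFN-γ, TNF-α) were measured by 13-plex FACS.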

[2] = tested on: human keratinocyte cell line (HaCaT); test: Cytokine secretion on protein level in activated human keratinocyte cell line HaCaT (13-plex FACS / Luminex, supernatant); format: cell-based; conditions: HaCaT; PMA/Ionomycin; Luminex; all tested concentrations
Summary of the method: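 First, T-cells are isolated from healthy donors' blood. Next, they and HaCaT keratinocytes are activated for 48 h with PMA/Ionomycin or IFN-γ in the presence of tripeptides. Finally, secreted cytokines are quantified in supernatants by 13-plex FACS at 48 and 72 h.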

primary murine T-cells = test: Cytokine secretion on protein level in activated primary murine T-cells (13-plex FACS / Luminex, supernatant); format: cell-based, C57BL/6 mice; conditions: murine T cells; PMA/Ionomycin; Luminex; all tested concentrations
Summary of the method: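 T-cells from secondary lymphatic organs of naïve C57BL/6 mice, stimulated with PMA/Ionomycin or IFN-γ; supernatant cytokines measured by 13-plex FACS 48 h and 72 h after stimulation. In another run, PMA/Ionomycin-stimulated cells received compounds at 10^−7, 10^−9 and 10^−11 M, with IFN-γ, IL-17 and IL-10 measured by Luminex.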

primary human T cells = test: Gene expression of pro-inflammatory cytokines (RT-qPCR) in primary human T cells; format: cell-based; conditions: PMA/Ionomycin, 10^−7 M, 10^−9 M and 10^−11 M
From the text: (§1) Cells were activated with PMA/Ionomycin and treated with PBS, α-MSH, K(D)PT and Examples 3, 8 and 9, respectively, at a concentration of 10^−9 M. Values are normalized to β-actin and are shown relative to the gene expression in PBS-stimulated cells.
(§2) Primary T-cells were isolated from peripheral blood from healthy volunteers and from secondary lymphatic organs from naïve C57BL/6 mice, respectively. The cells were stimulated with phorbol-12-myristate-13-acetate (PMA)/Ionomycin and interferon-gamma (IFN-γ), respectively, for 48 h to activate the cells. The activated cells release pro-inflammatory cytokines. In parallel a human (HaCaT) keratinocyte cell line was activated with PMA/Ionomycin and IFN-γ, respectively, too. […] At the same time release of anti-inflammatory IL-10 was inhibited. Two days after addition of PMA/Ionomycin and IFN-γ, respectively, the induction of IL-1 secretion was determined in the supernatant for proving that the cells are activated. […] The anti-inflammatory properties of the tripeptides were determined 48 h and 72 h following stimulation. A 13-plex-system based FACS analysis was used for showing the reduced secretion of pro-inflammatory cytokines in the supernatant. Data for IL-1, IL-2, IL-6, IL-12p70 IL-17, IFN-γ and TNF-α are considered to be most relevant. Thus, analysis of the anti-inflammatory properties of the tripeptides is preferably based on the results obtained for these analytes. […] Using this method the gene expression of pro-inflammatory markers like IL-6, IL-17, IFN-γ and TNF-α was determined.
(§3) In a third experiment murine and human T cells and HaCaT cells were stimulated with PMA/Ionomycin and treated with Examples 14, 15, 16 and 17 at 10^−7 M, 10^−9 M and 10^−11 M. Cytokine concentrations (IFN-γ, IL-17 and IL-10 for T cells and IFN-γ for HaCat) were assessed in the supernatants using the Luminex technology. Expression of genes coding for Il-1β, IL-6 and TNF-α was determined. […] Moreover, concentrations of pro-inflammatory cytokines IFN-γ and IL-17 was reduced in the supernatants whereas the concentration of anti-inflammatory cytokine IL-10 was increased.

[3] = tested on: human keratinocytes (HaCaT); test: Gene expression of pro-inflammatory cytokines (RT-qPCR) in human keratinocytes (HaCaT); format: cell-based; conditions: HaCaT cells; PMA/Ionomycin; 10^−7 M, 10^−9 M and 10^−11 M
From the text: as §1, §2, §3

primary murine T cells = test: Gene expression of pro-inflammatory cytokines (RT-qPCR) in primary murine T cells; format: cell-based, C57BL/6 mice; conditions: PMA/Ionomycin, 10^−7 M, 10^−9 M and 10^−11 M
From the text: as §1, §2, §3

Balb/c mice = test: Imiquimod-induced psoriasis in mice; format: in vivo; conditions: i.v.; for mRNA expression of IFN-γ and IL-36 in lesional skin: compared to vehicle control; for clinical score: day 9
Experimental: Psoriasis in Balb/c mice is induced by daily application of topical Imiquimod for 8 days. Animal are treated with the test items (topical or systemically). On day 9 the skin phenotype is characterized using a clinical score system (0=normal mouse skin; 1=mild reddening; 2=erythema; 3=erythema, swelling; 4=erythema, swelling, scaling; 5=erythema, swelling, scaling, (bloody) lesions). Skin is analyzed histologically. Lymph nodes are analyzed by flow cytometry and RT-qPCR. mRNA expression in lesional skin is analyzed by RT-qPCR. Cytokine concentrations in the serum are assessed using the Luminex technology.

Molecule	% of the starting concentration [1]	remaining at 1000 min, 160 μg/ml (in vitro)	remaining at 5 h, 160 μg/ml (in vitro)	concentration of anti-inflammatory cytokine IL-10 in the supernatants (primary human T-cells)	concentrations of pro-inflammatory cytokines IFN-γ and IL-17 in the supernatants (primary human T-cells)	concentration of pro-inflammatory cytokine IFN-γ in the supernatants [2]	concentration of anti-inflammatory cytokine IL-10 in the supernatants (primary murine T-cells)	concentrations of pro-inflammatory cytokines IFN-γ and IL-17 in the supernatants (primary murine T-cells)	expression of pro-inflammatory cytokines IL-1β, IL-6 and TNF-α on mRNA level (primary human T cells)	expression of pro-inflammatory cytokines IL-1β, IL-6 and TNF-α on mRNA level [3]	expression of pro-inflammatory cytokines IL-1β, IL-6 and TNF-α on mRNA level (primary murine T cells)	concentrations of TNF-α and IL-17 in the serum (Balb/c mice)	epidermal thickness (Balb/c mice)	mRNA expression of IFN-γ and IL-36 in lesional skin (Balb/c mice)	clinical score (Balb/c mice)
CC(C)(NC(=O)[C@@H]1CCCN1C(=O)[C@@H](N)CCCCN)C(=O)O [Example 8, H-(L)-Lys-(L)-Pro-Aib-OH] (H-Lys-Pro-[Aib]-OH)	47%	40%													
CC(C)(C)[C@H](NC(=O)[C@@H]1CCCN1C(=O)[C@@H](N)CCCCN)C(=O)O [Example 9, H-(L)-Lys-(L)-Pro-(L)-t-butyl-Gly-OH] (H-Lys-Pro-[Tle]-OH)			58%												
H-[dF]-Pro-[Aib]-OH [Example 15]				increased	reduced	reduced	increased	reduced	reduced expression	reduced expression	reduced expression	reduced	reduced	reduced	reduced
N^α,N^α-dimethyl-(L)-Nle-(L)-Pro-Aib-OH [Example 16]				increased	reduced	reduced	increased	reduced	reduced expression	reduced expression	reduced expression	reduced	reduced	reduced	reduced
N^α,N^α-dimethyl-(L)-Phe-(t)-Pro-Aib-OH [Example 17]				increased	reduced	reduced	increased	reduced	reduced expression	reduced expression	reduced expression	reduced	reduced	reduced	reduced
N^α-methyl-(D)-Phe-(L)-Pro-Aib-OH [Example 14]				increased	reduced	reduced	increased	reduced	reduced expression	reduced expression	reduced expression	reduced	reduced	reduced	reduced
